Values joined by “and” are separate entries in the source; they are usually repeats but may differ in a detail not shown here. Equal values may be shown once. Read-outs that look alike come from different tables or passages of the source.
Legend:
[1] = system: P. aeruginosa DSMZ 1117; assay type: cell-based, Pseudomonas aeruginosa; conditions: for Reduction in adhered bacteria [%] P. aeruginosa: polyester fabric, application concentration 0.1 wt %, commercial product applied directly by padding, relative to uncoated fabric; for Reduction in adhered bacteria [%]: P. aeruginosa, polyester
Experimental: (§1) Circular fabric samples with a diameter of 0.6 cm were punched from coated and uncoated cotton and polyester fabrics. The fabric samples were fixed to a microtiter plate. The fabric samples were washed with acetone and sterilized with UV light for 60 minutes.
(§2) The strains were coated fresh from glycerol bacterial cultures onto tryptic soy agar (TSA). Incubation took place overnight at 33° C. The nutrient medium prepared was a tryptic soy broth (TSB), with 30% of the amount recommended by the manufacturer, supplemented with 0.25% of glucose. […] The nutrient medium was inoculated with the bacterial cultures and after inoculation was cultivated overnight at 37° C. and 160 rpm.
(§3) The resulting overnight cultures were centrifuged at 8500 g for 15 minutes and washed with 50 ml of isotonic saline solution (0.9 wt %). Bacterial suspensions in isotonic saline solutions were prepared. The optical density of the various bacterial suspensions was determined at 595 nm and adjusted to a level of about 1.2.
(§4) 50 μl of the final microorganism suspension in isotonic saline solution (0.9 wt %) prepared as described under 2.2 were added to the coated and uncoated fabric samples fixed on the microtiter plate (see 2.1). The microtiter plates were closed and sealed off with Parafilm. The microtiter plates were placed in an antievaporation box and incubated at 33° C. for 2 h and at 40 rpm. The expected colony-forming unit count (CFU) of the inoculum at the start was 10^6-10^7 CFU/ml.
After the biofilm had formed, the planctonic cells were removed and used as a sample for determining the optical density at 595 nm. For this purpose, the samples were made up to a volume of 150 μl, and 100 μl were withdrawn for the optical density determination in a photometer. […] Through the determination of the planctonic cells after the formation of biofilm, the amount of bacteria available for adhesion was monitored.
(§5) The fabric samples and the resulting biofilm were washed three times with 200 to 300 μl of isotonic saline solution.
(§6) The fabric samples obtained under 2.4 (after formation of biofilm) were placed together with 100 μl of isotonic saline solution into wells of a 96-well microtiter plate.
(§7) Investigations into the removal of the adhered microorganisms from the fabric surfaces were carried out with vortexing, ultrasound, with enzymatic treatment, or with combinations thereof. Treatment in the vortex amounted to 5 minutes and was performed horizontally. The ultrasound treatment was carried out in an ultrasound bath for 5 minutes. For the enzymatic removal, the fabric samples were treated with enzymes, such as trypsin or a mixture of different enzymes, for example, during incubation at 37° C. for 1 hour.
(§8) Following removal of the adhered bacteria, the fabric samples were removed from the microtiter plates.
(§9) The number of removed bacteria in the resulting suspension was determined by staining with Syto9 and fluorescence measurement (fluorescence filter with excitation at 485/20 nm and emission at 528/20 nm) or by staining with BacTiterGlo and bioluminescence measurement. Furthermore, it is possible to determine the number of adhered and removed microorganisms by means of protein assay (e.g., BCA assay, Bradford Assay) or optical density proliferation assay.
The relative variables (e.g., fluorescence units (RFU)) concerning the coated and uncoated fabrics were compared, allowing the reduction in adhered bacteria in % to be determined in accordance with the following formula: Reduction in adhered bacteria[%]=[(RFUuc−RFUuc)/RFUuc]*100 where • RFUuc=relative fluorescence units of the removed bacteria of the uncoated substrate • RFUc=relative fluorescence units of the removed bacteria of the coated substrate
The commercial products described in example 1 were applied directly by a padding method to polyester fabric samples.
Bacterial adhesion to the polyester fabric samples was investigated using the microtiter plate Syto9 assay, as described in example 2.

[2] = system: S. aureus DSMZ 20231; assay: Syto9 microtiter plate assay: adhesion of bacteria to coated polyester fabric samples; assay type: cell-based, Staphylococcus aureus; conditions: for Reduction in adhered bacteria [%] S. aureus: polyester fabric, application concentration 0.1 wt %, commercial product applied directly by padding, relative to uncoated fabric; for Reduction in adhered bacteria [%]: S. aureus, polyester
Experimental: as §1, §2, §3, §4
After the biofilm had formed, the planctonic cells were removed and used as a sample for determining the optical density at 595 nm. For this purpose, the samples were made up to a volume of 150 μl, and 100 μl were withdrawn for the optical density determination in a photometer. The optical density of the corresponding control solution with sterile isotonic saline solution was subtracted from the optical densities found. Through the determination of the planctonic cells after the formation of biofilm, the amount of bacteria available for adhesion was monitored.
as §5, §6, §7, §8, §9
The relative variables (e.g., fluorescence units (RFU)) concerning the coated and uncoated fabrics were compared, allowing the reduction in adhered bacteria in % to be determined in accordance with the following formula: Reduction in adhered bacteria[%]=[(RFUuc−RFUuc)/RFUuc]*100 where • RFUuc=relative fluorescence units of the removed bacteria of the uncoated substrate • RFUc=relative fluorescence units of the removed bacteria of the coated substrate […]

[3] = system: Staphylococcus aureus; assay type: cell-based; conditions: for Reduction in cell count relative to control [%] S. aureus: coated glass slide vs uncoated glass control K; for Cell count [1/cm^2] S. aureus: glass slide coated from 0.1% strength solution, bacterial suspension 10^9 microbes/ml, 30 measuring windows
Excerpt: (§10) Silane derivatives S1, S3, S4 and S5 as identified above in example 1 were used to produce coatings on glass slides. As a control (comparison sample) K, an uncoated glass slide cleaned with isopropanol was used.
(§11) For the coating of the slides they were immersed for 60 seconds into a 0.1% strength solution of the corresponding silane derivative in ethanol/water as solvent with a water fraction of 5%. The solutions had been adjusted with acetic acid beforehand to a pH in the range from 4 to 5. The wetted slides were subsequently dried at 160° C. for 1 hour.
(§12) The slides wetted with the bacterial suspension were analyzed by microscope to determine the adhering bacteria. […] The fluorescent dye used was DAPI (4′,6-diamidine-2-phenylindole), which binds to DNA and fluoresces under UV excitation. In order to determine the adhesion characteristics, the cell counts per cm^2 were ascertained in 30 measuring windows, and the adhesion pattern was evaluated. Cell attachment was evaluated on an Olympus IX 51 using the Labflow AnalySIS image processing program.
(§13) Bacterial suspensions produced and used were suspensions of test cultures of the strains Staphylococcus aureus and Escherichia coli. The concentration of the bacterial suspension was 10^9 microbes/ml.

[4] = system: Escherichia coli; assay: Bacterial adhesion to coated glass slides via fluorescence microscopy (DAPI); assay type: cell-based; conditions: for Reduction in cell count relative to control [%] E. coli: coated glass slide vs uncoated glass control K; for Cell count [1/cm^2] E. coli: glass slide coated from 0.1% strength solution, bacterial suspension 10^9 microbes/ml, 30 measuring windows
Excerpt: as §10, §11, §12, §13

[5] = system: Staphylococcus aureus; assay: Antimicrobial activity of coated polyester fabric samples as per JIS L 1902; assay type: cell-based; conditions: for Antimicrobial activity[log] Unwashed: 18 hours at 37° C.
Experimental: The procedure here is that the fabric sample was inoculated with a defined amount of a microbial suspension (inoculum). Test specimens with a weight of approximately 0.4 g were investigated in a triplicate determination.
The inoculated fabric sample was incubated in a closed system at 37° C. over a period of 18 hours. Following incubation, the bacteria of a defined amount of a dilution solution were recorded. The difference in the bacterial count of the fabric sample at 0 hours in comparison to the fabric sample after 18 hours served as a basis for evaluation. The antimicrobial activity is reported as a logarithmic or percentage value. Here, a reduction in the microbe count of 0% corresponds to inadequate antimicrobial action, a microbe reduction in the range from 0.1 to less than 90% to an inadequate antibacterial action, and a microbe reduction of greater than 90% to a good antibacterial action.

[6] = coating concentration 0.001 %, wash pretreatment (A) unwashed
[7] = coating concentration 0.001 %, wash pretreatment (B) washed twice at 30° C. only with water
[8] = coating concentration 0.01 %, wash pretreatment (A) unwashed
[9] = coating concentration 0.01 %, wash pretreatment (B) washed twice at 30° C. only with water
[10] = coating concentration 0.01 %, wash pretreatment (C) washed once at 30° C. EN ISO 6330 method 8A with ECE B detergent
[11] = coating concentration 0.1 %, wash pretreatment (A) unwashed
[12] = coating concentration 0.1 %, wash pretreatment (B) washed twice at 30° C. only with water
[13] = coating concentration 0.1 %, wash pretreatment (C) washed once at 30° C. EN ISO 6330 method 8A with ECE B detergent
[14] = coating concentration 0.001 % based on fabric
[15] = coating concentration 0.01 % based on fabric
[16] = coating concentration 0.1 % based on fabric

## methoxy(polyethyleneoxy)propyltrimethoxysilane (9-12 EO units) [S1]
[1]
  Reduction in adhered bacteria [%] P. aeruginosa: 41%
[2]
  Reduction in adhered bacteria [%] S. aureus: 34%
[3]
  Reduction in cell count relative to control [%] S. aureus: 76%
  Cell count [1/cm^2] S. aureus: 110 000 1/cm^2
[3]; coated glass slides
  adhesion of S. aureus to coated glass, assessment in words: Very good results
[4]; both series of tests (S. aureus and E. coli), compared with glass control
  adhesion of bacteria to coated glass, assessment in words: very good results
[4]
  Reduction in cell count relative to control [%] E. coli: 63%
  Cell count [1/cm^2] E. coli: 296 000 1/cm^2

## bis[3-(triethoxysilylpropoxy)-2-hydroxypropoxy)]polyethylene oxide (5-10 EO units) [S2]
[1]; [6]
  Reduction in adhered bacteria [%]: 62%
[1]; [7]
  Reduction in adhered bacteria [%]: 87%
[1]; coating concentration 0.001 %, wash pretreatment (C) washed once at 30° C. EN ISO 6330 method 8A with ECE B detergent
  Reduction in adhered bacteria [%]: 55%
[1]; [8]
  Reduction in adhered bacteria [%]: 79%
[1]; [9]
  Reduction in adhered bacteria [%]: 36%
[1]; [10]
  Reduction in adhered bacteria [%]: 75%
[1]; [11]
  Reduction in adhered bacteria [%]: 68%
[1]; [12]
  Reduction in adhered bacteria [%]: 45%
[1]; [13]
  Reduction in adhered bacteria [%]: 75%
[1]
  Reduction in adhered bacteria [%] P. aeruginosa: 64%
[2]; [6]
  Reduction in adhered bacteria [%]: 30%
[2]; [7]
  Reduction in adhered bacteria [%]: 52%
[2]; [8]
  Reduction in adhered bacteria [%]: 71%
[2]; [9]
  Reduction in adhered bacteria [%]: 31%
[2]; [10]
  Reduction in adhered bacteria [%]: 66%
[2]; [11]
  Reduction in adhered bacteria [%]: 55%
[2]; [12]
  Reduction in adhered bacteria [%]: 48%
[2]; [13]
  Reduction in adhered bacteria [%]: 49%
[2]
  Reduction in adhered bacteria [%] S. aureus: 85%
[5]; [14]
  Antimicrobial activity[log] Unwashed: 0.2 log
  Antimicrobial activity[log] Washed once at 30° C., without detergent: −0.1 log
  Antimicrobial activity[log] Washed twice with water: 0.1 log
[5]; [15]
  Antimicrobial activity[log] Unwashed: −0.4 log
  Antimicrobial activity[log] Washed once at 30° C., without detergent: −0.6 log
  Antimicrobial activity[log] Washed twice with water: 0.1 log
[5]; [16]
  Antimicrobial activity[log] Unwashed: −0.2 log
  Antimicrobial activity[log] Washed once at 30° C., without detergent: −0.4 log
  Antimicrobial activity[log] Washed twice with water: 0.00 log

## CCO[Si](CCCNC(=O)[C@H](O)[C@@H](O)[C@H](O)[C@H](O)CO)(OCC)OCC [S4, N-(triethoxysilylpropyl)gluconamide]
[1]
  Reduction in adhered bacteria [%] P. aeruginosa: 57%
[2]
  Reduction in adhered bacteria [%] S. aureus: 58%
[3]; S. aureus on coated glass surface
  adhesion pattern on microscopic inspection: only a few grapelike assemblies of S. aureus
[3]
  Reduction in cell count relative to control [%] S. aureus: 16% and 17%
  Cell count [1/cm^2] S. aureus: 383 000 1/cm^2
[4]
  Reduction in cell count relative to control [%] E. coli: 51%
  Cell count [1/cm^2] E. coli: 389 000 1/cm^2

— patent US10132029B2, “Method for reducing adhesion of microorganisms to fabrics” (priority 2013, dated 2018)
